Measured values as given in US9115092B2, “Substituted quinazoline and pyrido-pyrimidine derivatives” (Asana Biosciences, LLC, priority 2010, dated 2015).

Tests used:
[1] = molecular target: T1, PI3Kα (wild-type), P110/P85α (Homo sapiens, UniProt P42336); test: PI3 Kinase TR-FRET assay, PI3Kα (wild-type); assay type: biochemical
T1 construct: made in house; host or cells: SF9 insect cells
Outline: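 Sf9-expressed His-purified P110/P85α (5 ng) preincubated 60 min RT with compound and PIP2 in buffer with 40 mM MgCl2, 5 mM DTT; reaction started with ATP (PIP2 and ATP both 10 μM), 30 min RT. PIP3 detected by TR-FRET displacement, 665/615 nm ratio; IC50 from dose-response curves.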

mTOR kinase = molecular target: T2, mTOR kinase (Homo sapiens, UniProt P42345); test: mTOR kinase TR-FRET assay; assay type: biochemical; settings: read-out: mTO R
T2 construct: purchased Millipore, USA
Outline: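 Compounds preincubated 60 min with mTOR (5 ng) in HEPES pH 7.5, EGTA, MnCl2; ULight-p70 S6K Thr389 peptide (50 nM) and ATP (20 μM) then added, 60 min at room temperature. EDTA-stopped, Eu-anti-phospho antibody detection by TR-FRET (665/615 nm); IC50 from variable-slope sigmoidal fit.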

[2] = tested on: pS6RP(S235/236), PC3 cells; test: In-cell Western assay, pS6RP(S235/236) in PC3 cells; assay type: cell-based, human; settings: Homo sapiens, PC-3, In-cell Western
Outline: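 Overnight-seeded PC3 cells were treated 2 h with serially diluted compound, then fixed and immunostained with phospho-specific primary antibodies and Eu-labelled secondary. Time-resolved Eu signal read at 615 nm (ex 340 nm), normalised by Hoechst 33258 staining (ex 355/em 460 nm); IC50 from sigmoidal dose-response fit.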

PC3 cells = test: XTT assay for cell viability, PC3 cells; assay type: cell-based, human; settings: Homo sapiens, PC-3, cell viability
Outline: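 PC3 cells seeded at 1000 cells/well, grown 24 h, then exposed to serial dilutions of compound for 96 h. Viability read by XTT dye at 37° C, absorbance 465 nm. EC50 from sigmoidal dose-response fit.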

T1 sequence (P42336 whole entry): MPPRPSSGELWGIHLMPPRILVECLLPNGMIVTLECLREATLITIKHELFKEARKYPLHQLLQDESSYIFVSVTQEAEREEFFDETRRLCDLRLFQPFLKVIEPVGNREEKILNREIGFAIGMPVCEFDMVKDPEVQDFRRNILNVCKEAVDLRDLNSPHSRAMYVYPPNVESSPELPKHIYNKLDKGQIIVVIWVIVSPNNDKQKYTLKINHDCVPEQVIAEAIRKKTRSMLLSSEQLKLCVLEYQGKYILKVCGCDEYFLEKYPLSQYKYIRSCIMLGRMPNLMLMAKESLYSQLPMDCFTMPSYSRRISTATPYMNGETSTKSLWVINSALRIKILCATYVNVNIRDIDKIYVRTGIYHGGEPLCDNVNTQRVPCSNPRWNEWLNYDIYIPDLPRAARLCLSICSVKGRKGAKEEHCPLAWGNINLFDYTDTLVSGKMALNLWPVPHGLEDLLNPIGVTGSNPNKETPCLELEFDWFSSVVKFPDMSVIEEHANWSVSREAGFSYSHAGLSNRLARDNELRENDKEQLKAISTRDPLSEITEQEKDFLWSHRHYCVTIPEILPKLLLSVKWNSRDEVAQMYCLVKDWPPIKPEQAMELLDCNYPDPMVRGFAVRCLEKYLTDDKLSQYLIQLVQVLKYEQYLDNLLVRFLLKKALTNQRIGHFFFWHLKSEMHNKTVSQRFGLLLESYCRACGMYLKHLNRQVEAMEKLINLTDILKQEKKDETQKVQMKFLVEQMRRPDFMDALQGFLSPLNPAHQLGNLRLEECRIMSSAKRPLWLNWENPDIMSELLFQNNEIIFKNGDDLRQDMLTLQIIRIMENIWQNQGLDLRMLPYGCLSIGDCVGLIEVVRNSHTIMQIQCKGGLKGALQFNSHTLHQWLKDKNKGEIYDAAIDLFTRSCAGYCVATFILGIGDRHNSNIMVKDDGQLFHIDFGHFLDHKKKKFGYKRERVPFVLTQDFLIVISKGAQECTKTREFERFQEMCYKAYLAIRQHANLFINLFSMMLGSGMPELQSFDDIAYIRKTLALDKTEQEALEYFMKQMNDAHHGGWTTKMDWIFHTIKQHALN
T1 sequence (P27986 whole entry partner): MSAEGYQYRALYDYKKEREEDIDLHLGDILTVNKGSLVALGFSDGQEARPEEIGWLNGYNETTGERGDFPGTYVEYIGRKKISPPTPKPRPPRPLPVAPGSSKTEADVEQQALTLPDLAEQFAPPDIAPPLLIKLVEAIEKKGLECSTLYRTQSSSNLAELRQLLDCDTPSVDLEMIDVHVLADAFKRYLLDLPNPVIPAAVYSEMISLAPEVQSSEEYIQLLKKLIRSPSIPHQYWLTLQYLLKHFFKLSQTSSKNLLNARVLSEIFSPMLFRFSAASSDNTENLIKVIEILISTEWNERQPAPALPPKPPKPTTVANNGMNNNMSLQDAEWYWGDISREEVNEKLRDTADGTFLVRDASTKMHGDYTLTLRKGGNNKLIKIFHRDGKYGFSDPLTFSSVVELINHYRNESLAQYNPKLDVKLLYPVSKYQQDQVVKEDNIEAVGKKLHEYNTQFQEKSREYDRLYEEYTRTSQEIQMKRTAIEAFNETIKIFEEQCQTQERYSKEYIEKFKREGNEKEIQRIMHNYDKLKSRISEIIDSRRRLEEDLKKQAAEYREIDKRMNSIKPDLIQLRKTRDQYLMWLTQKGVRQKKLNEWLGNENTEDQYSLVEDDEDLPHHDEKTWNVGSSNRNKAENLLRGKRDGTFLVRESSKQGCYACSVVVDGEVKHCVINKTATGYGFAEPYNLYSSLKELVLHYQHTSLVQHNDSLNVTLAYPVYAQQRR

With `CN(C)C(=O)c1ccc(NC(=O)Nc2ccc(-c3nc(N4CCOCC4)c4cc(F)c(-c5cccnc5F)cc4n3)cn2)cc1` [Example 112, 4-(3-(5-(6-fluoro-7-(2-fluoropyridin-3-yl)-4-morpholino-quinazolin-2-yl)pyridin-2-yl)ureido)-N,N-dimethyl-benzamide] the IC50 [1] was less than 0.05 µM, the IC50 (mTOR kinase) was 0.201 to 10 µM and the IC50 [2] was 0.501 to 5 µM. For the same compound, the IC50 (PC3 cells) was less than 0.1 µM.
`CN(C)C(=O)c1ccc(NC(=O)Nc2ccc(-c3nc(N4CCOCC4)c4ncc(-c5cccc(S(C)(=O)=O)c5)cc4n3)cn2)cc1` [Example 115, N,N-dimethyl-4-(3-(5-(7-(3-(methylsulfonyl)phenyl)-4-morpholino-pyrido[3,2-d]pyrimidin-2-yl)pyridin-2-yl)ureido)-benzamide] was tested, and the IC50 [1] was less than 0.05 µM, the IC50 (mTOR kinase) was 0.05 to 0.2 µM and the IC50 [2] was 0.201 to 10 µM. It also gave an IC50 (PC3 cells) of 0.201 to 10 µM.
`COc1ncc(-c2cnc3c(N4CCOCC4)nc(-c4ccc(NC(=O)Nc5ccc(C(=O)N(C)C)cc5)c(F)c4)nc3c2)cn1` [Example 117, 4-(3-(2-fluoro-4-(7-(2-methoxypyrimidin-5-yl)-4-morpholino-pyrido[3,2-d]pyrimidin-2-yl)phenyl)ureido)-N,N-dimethyl-benzamide] gave an IC50 [1] of less than 0.05 µM, an IC50 (mTOR kinase) of less than 0.05 µM and an IC50 [2] of 0.201 to 10 µM. For the same compound, the IC50 (PC3 cells) was less than 0.1 µM.
For `Cc1noc(C)c1-c1cnc2c(N3CCOCC3)nc(-c3ccc(NC(=O)Nc4ccc(C(=O)N(C)C)cc4)cc3)nc2c1` [Example 120, 4-(3-(4-(7-(3,5-dimethylisoxazol-4-yl)-4-morpholino-pyrido[3,2-d]pyrimidin-2-yl)phenyl)ureido)-N,N-dimethyl-benzamide], the IC50 [1] was less than 0.05 µM, the IC50 (mTOR kinase) was less than 0.05 µM and the IC50 [2] was 0.201 to 10 µM. For the same compound, the IC50 (PC3 cells) was 0.201 to 10 µM.
Work on `Cc1noc(C)c1-c1ccc2c(N3CCOCC3)nc(-c3ccc(NC(=O)Nc4ccc(C(=O)N(C)C)cc4)cc3)nc2c1` [Example 121, 4-(3-(4-(7-(3,5-dimethylisoxazol-4-yl)-4-morpholino-quinazolin-2-yl)phenyl)ureido)-N,N-dimethyl-benzamide] yielded an IC50 [1] of less than 0.05 µM, an IC50 (mTOR kinase) of less than 0.05 µM and an IC50 [2] of 0.201 to 10 µM. The IC50 (PC3 cells) was 0.201 to 10 µM.
`CN(C)C(=O)c1ccc(NC(=O)Nc2ccc(-c3nc(N4CCOCC4)c4ccc(-c5cncnc5)cc4n3)cc2F)cn1` [Example 123, 5-(3-(2-fluoro-4-(4-morpholino-7-(pyrimidin-5-yl)quinazolin-2-yl)phenyl)ureido)-N,N-dimethylpicolinamide] showed an IC50 [1] of 0.05 to 0.2 µM, an IC50 (mTOR kinase) of less than 0.05 µM and an IC50 [2] of 0.201 to 10 µM. It also gave an IC50 (PC3 cells) of 0.201 to 10 µM.
Compound `CN(C)C(=O)c1ccc(NC(=O)Nc2ccc(-c3nc(N4CCOCC4)c4ncc(-c5cnc(N)nc5)cc4n3)cc2F)cc1` [Example 127, 4-(3-(4-(7-(2-aminopyrimidin-5-yl)-4-morpholinopyrido[3,2-d]pyrimidin-2-yl)-2-fluorophenyl)ureido)-N,N-dimethyl-benzamide] has an IC50 [1] of less than 0.05 µM, an IC50 (mTOR kinase) of less than 0.05 µM and an IC50 [2] of 0.201 to 10 µM. For the same compound, the IC50 (PC3 cells) was 0.201 to 10 µM.
`CC1CN(c2nc(-c3ccc(NC(=O)Nc4ccc(C(=O)N(C)C)cc4)cc3)nc3cc(-c4cncnc4)ccc23)CC(C)O1` (stereo not shown) [Example 128, 4-(3-(4-(4-(2,6-dimethylmorpholino)-7-(pyrimidin-5-yl)quinazolin-2-yl)phenyl)ureido)-N,N-dimethyl-benzamide] was tested, and the IC50 [1] was 0.201 to 10 µM, the IC50 (mTOR kinase) was less than 0.05 µM and the IC50 [2] was 0.201 to 10 µM. For the same compound, the IC50 (PC3 cells) was less than 0.1 µM.
`Cc1ccc(-c2ccc3c(N4CCOCC4)nc(-c4ccc(NC(=O)Nc5ccc(C(=O)N(C)C)nc5)nc4)nc3c2)o1` [Example 129, N,N-dimethyl-5-(3-(5-(7-(5-methylfuran-2-yl)-4-morpholino-quinazolin-2-yl)pyridin-2-yl)ureido)picolinamide] was tested, and the IC50 [1] was less than 0.05 µM, the IC50 (mTOR kinase) was 0.05 to 0.2 µM and the IC50 [2] was less than 0.1 µM. It also gave an IC50 (PC3 cells) of 0.501 to 5 µM.
With `CN(C)C(=O)c1ccc(NC(=O)Nc2ccc(-c3nc(N4CCOCC4)c4ccc(-c5cccc(S(C)(=O)=O)c5)cc4n3)cc2F)cn1` [Example 130, 5-(3-(2-fluoro-4-(7-(3-(methylsulfonyl)phenyl)-4-morpholino-quinazolin-2-yl)phenyl)ureido)-N,N-dimethylpicolinamide] the IC50 [1] was less than 0.05 µM, the IC50 (mTOR kinase) was less than 0.05 µM and the IC50 [2] was 0.201 to 10 µM. For the same compound, the IC50 (PC3 cells) was 0.201 to 10 µM.
For `Cc1noc(C)c1-c1ccc2c(N3CCOCC3)nc(-c3ccc(NC(=O)Nc4ccc(C(=O)N(C)C)cc4)c(F)c3)nc2c1` [Example 131, 4-(3-(4-(7-(3,5-dimethylisoxazol-4-yl)-4-morpholino-quinazolin-2-yl)-2-fluorophenyl)ureido)-N,N-dimethyl-benzamide], the IC50 [1] was less than 0.05 µM, the IC50 (mTOR kinase) was 0.05 to 0.2 µM and the IC50 [2] was 0.201 to 10 µM. The IC50 (PC3 cells) was 0.201 to 10 µM.
In the case of `CC1CN(c2nc(-c3ccc(NC(=O)Nc4ccc(C(=O)N(C)C)cc4)c(F)c3)nc3cc(-c4cncnc4)ccc23)CC(C)O1` (stereo not shown) [Example 132, 4-(3-(4-(4-(2,6-dimethylmorpholino)-7-(pyrimidin-5-yl)quinazolin-2-yl)-2-fluorophenyl)ureido)-N,N-dimethyl-benzamide], the IC50 [1] is reported as 0.201 to 10 µM, the IC50 (mTOR kinase) is reported as 0.05 to 0.2 µM and the IC50 [2] is reported as 0.201 to 10 µM. The IC50 (PC3 cells) was 0.201 to 10 µM.
Work on `CN(C)C(=O)c1ccc(NC(=O)Nc2ccc(-c3nc(N4CCOCC4)c4ncc(-c5cnn(C)c5)cc4n3)cc2)c(F)c1` [Example 134, 3-fluoro-N,N-dimethyl-4-(3-(4-(7-(1-methyl-1H-pyrazol-4-yl)-4-morpholino-pyrido[3,2-d]pyrimidin-2-yl)phenyl)ureido)-benzamide] yielded an IC50 [1] of less than 0.05 µM, an IC50 (mTOR kinase) of less than 0.05 µM and an IC50 [2] of 0.201 to 10 µM. The IC50 (PC3 cells) was 0.201 to 10 µM.
`CN(C)C(=O)c1ccc(NC(=O)Nc2ccc(-c3nc(N4CCOCC4)c4ccc(-c5ccncc5)cc4n3)cc2F)cc1` [Example 137, 4-(3-(2-fluoro-4-(4-morpholino-7-(pyridin-4-yl)quinazolin-2-yl)phenyl)ureido)-N,N-dimethyl-benzamide] gave an IC50 [1] of 0.05 to 0.2 µM, an IC50 (mTOR kinase) of 0.05 to 0.2 µM and an IC50 [2] of 0.201 to 10 µM. For the same compound, the IC50 (PC3 cells) was 0.201 to 10 µM.
With `CN(C)C(=O)c1ccc(NC(=O)Nc2ccc(-c3nc(N4CCOCC4)c4ccccc4n3)cc2)cc1` [Example 179, N,N-dimethyl-4-(3-(4-(4-morpholino-quinazolin-2-yl)phenyl)ureido)-benzamide] the IC50 [1] was 0.05 to 0.2 µM, the IC50 (mTOR kinase) was less than 0.05 µM and the IC50 [2] was 0.201 to 10 µM. For the same compound, the IC50 (PC3 cells) was 0.201 to 10 µM.
Compound `COc1ccc2c(N3CCOCC3)nc(-c3ccc(NC(=O)Nc4ccc(C(=O)N(C)C)cc4)cc3)nc2c1` [Example 180, 4-(3-(4-(7-methoxy-4-morpholino-quinazolin-2-yl)phenyl)ureido)-N,N-dimethyl-benzamide] has an IC50 [1] of less than 0.05 µM, an IC50 (mTOR kinase) of less than 0.05 µM and an IC50 [2] of 0.201 to 10 µM. The IC50 (PC3 cells) was 0.201 to 10 µM.
For `COc1cc2nc(-c3ccc(NC(=O)Nc4ccc(C(=O)N(C)C)cc4)cc3)nc(N3CCOCC3)c2cc1OC` [Example 181, 4-(3-(4-(6,7-dimethoxy-4-morpholino-quinazolin-2-yl)phenyl)ureido)-N,N-dimethyl-benzamide], the IC50 [1] was 0.05 to 0.2 µM, the IC50 (mTOR kinase) was less than 0.05 µM and the IC50 [2] was 0.201 to 10 µM. The IC50 (PC3 cells) was 0.201 to 10 µM.
Work on `CN(C)[C@@H]1CCN(C(=O)c2ccc(NC(=O)Nc3ccc(-c4nc(N5CCOCC5)c5ncc(-c6cnn(C)c6)cc5n4)cc3)cc2)C1` [Example 184, (R)-1-(4-(3-(dimethylamino)pyrrolidine-1-carbonyl)phenyl)-3-(4-(7-(1-methyl-1H-pyrazol-4-yl)-4-morpholino-pyrido[3,2-d]pyrimidin-2-yl)phenyl)urea] yielded an IC50 [1] of less than 0.05 µM, an IC50 (mTOR kinase) of less than 0.05 µM and an IC50 [2] of 0.201 to 10 µM. For the same compound, the IC50 (PC3 cells) was 0.201 to 10 µM.
With `CN(C)C1CCN(C(=O)c2ccc(NC(=O)Nc3ccc(-c4nc(N5CCOCC5)c5ncc(-c6cnn(C)c6)cc5n4)cc3)cc2)CC1` [Example 186, 1-(4-(4-(dimethylamino)piperidine-1-carbonyl)phenyl)-3-(4-(7-(1-methyl-1H-pyrazol-4-yl)-4-morpholino-pyrido[3,2-d]pyrimidin-2-yl)phenyl)urea] the IC50 [1] was less than 0.05 µM, the IC50 (mTOR kinase) was less than 0.05 µM and the IC50 [2] was 0.201 to 10 µM. The IC50 (PC3 cells) was 0.201 to 10 µM.
In the case of `CN(C)[C@@H]1CCN(C(=O)c2ccc(NC(=O)Nc3ccc(-c4nc(N5CCOCC5)c5ccc(-c6cncnc6)cc5n4)cc3)cc2)C1` [Example 187, (R)-1-(4-(3-(dimethylamino)pyrrolidine-1-carbonyl)phenyl)-3-(4-(4-morpholino-7-(pyrimidin-5-yl)quinazolin-2-yl)phenyl)urea], the IC50 [1] is reported as less than 0.05 µM, the IC50 (mTOR kinase) is reported as less than 0.05 µM and the IC50 [2] is reported as 0.201 to 10 µM. For the same compound, the IC50 (PC3 cells) was 0.201 to 10 µM.
For `O=C(Nc1ccc(C(=O)N2CCC(O)C2)cc1)Nc1ccc(-c2nc(N3CCOCC3)c3ccc(-c4cncnc4)cc3n2)cc1` (stereo not shown) [Example 189, 1-(4-(3-hydroxypyrrolidine-1-carbonyl)phenyl)-3-(4-(4-morpholino-7-(pyrimidin-5-yl)quinazolin-2-yl)phenyl)urea], the IC50 [1] was 0.201 to 10 µM, the IC50 (mTOR kinase) was less than 0.05 µM and the IC50 [2] was 0.201 to 10 µM. The IC50 (PC3 cells) was 0.201 to 10 µM.
In the case of `CN(C)Cc1ccc(-c2ccc3c(N4CCOCC4)nc(-c4ccc(NC(=O)Nc5ccc(C(=O)N(C)C)cc5)cc4)nc3c2)o1` [Example 190, 4-(3-(4-(7-(5-((dimethylamino)methyl)furan-2-yl)-4-morpholino-quinazolin-2-yl)phenyl)ureido)-N,N-dimethyl-benzamide], the IC50 [1] is reported as 0.05 to 0.2 µM, the IC50 (mTOR kinase) is reported as less than 0.05 µM and the IC50 [2] is reported as 0.201 to 10 µM. It also gave an IC50 (PC3 cells) of 0.201 to 10 µM.
